Source: patent US20240245711A1, “A 19-NOR C3,3-DISUBSTITUTED C21-N-PYRAZOLYL STEROID FOR THE TREATMENT OF MAJOR DEPRESSIVE DISORDER” (Sage Therapeutics, Inc., priority 2021, published 2024)
Several values for one entry are separate records, joined by “and”; a condition that tells them apart may be missing. Equal entries are not always repeated.

System: adult subjects with Major Depressive Disorder
Test: Phase 3 open-label 1-year study: HAM-D total score, response and remission
Assay type: in vivo, human
Text: Secondary Objective: To assess the need for re-treatment with Compound (1) following initial treatment in adults with MDD currently experiencing an MDE over a 1-year period, and to assess the response of initial treatment and re-treatment(s) with Compound (1) following an initial 2-week treatment period in adults with MDD currently experiencing an MDE over a 1-year period.
Secondary Endpoints: The need for re-treatment with Compound (1) as assessed by: time to first re-treatment (Kaplan-Meier curves), number of subjects achieving the requirements for re-treatment, number of re-treatment cycles for each subject, the response of initial treatment and/or re-treatment as assessed by: change from baseline in the 17-item Hamilton Rating Scale for Depression (HAM-D) total score at the end of each 14-day treatment (initial and/or re-treatment) period, HAM-D response at the end of each 14-day treatment (initial and/or re-treatment) period, defined as a ≥50% reduction in HAM-D score from baseline, HAM-D remission at the end of each 14-day treatment (initial and/or re-treatment) period, defined as HAM-D total score≤7, Clinical Global Impression-Improvement (CGI-I) response, defined as “much improved” or “very much improved”, at the end of each 14-day treatment (initial and/or re-treatment) period, change from baseline in Clinical Global Impression-Severity (CGI-S) score at the end of each 14-day treatment (initial and/or re-treatment) period.
Study Population: Subjects were 18-75 years old, diagnosed with major depressive disorder (MDD) with a MADRS total score of ≥28 and a HAM-D total score of ≥20 at Screening and Day 1 (prior to dosing).
Treatment Groups: The 30 mg and 50 mg dose groups were separated by time of enrollment. The study is comprised of two cohorts: one with Compound (1) 30 mg as a starting dose (30 mg Cohort: n=725), an initial cohort with Compound (1) 50 mg as a starting dose (50 mg Cohort: n=199). A patient receiving Compound (1) 30 mg could be dose reduced to 20 mg and patients receiving Compound (1) 50 mg could be dose reduced to 40 mg (based on tolerability). In all cohorts, Compound (1) is self-administered by patients as an oral therapy once nightly with food for 14 days.
Eligible subjects were given Compound (1)—to be taken at home in the evening with meal.
The cohorts pertaining to the different doses that the subjects received were defined as following: • 50 mg cohort: This cohort includes subjects who have initiated treatment with 50 mg and received re-treatment with 50 mg only. • 30 mg cohort: This cohort includes subjects who have initiated treatment with 30 mg regardless of the dose they have received in re-treatments. • Low dose cohort: This cohort includes subjects who have initiated treatment with 30 mg and received re-treatment with 30 mg only. • Dose switch cohort: This cohort includes subjects who have received initial treatment with 30 mg and at least one subsequent re-treatment with 50 mg. • Study Period X: starts on the date of the first dose of Compound (1) in cycle X and goes up to one day prior to the first dose of the next cycle. In some embodiments, X is any number from 1 to 5. • Treatment Period X: starts on the date of the first dose of Compound (1) in cycle X and goes up to one day after the last dose in cycle X. In some embodiments, X is any number from 1 to 5. • Treatment Cycle X: starts on the date of the first dose of Compound (1) in cycle X and goes up to 14 days after the last dose in cycle X. The treatment cycles may be denoted as C1-C5. • Observation period X: starts the day after Treatment Cycle X ends and goes up to one day prior to the start of next treatment cycle. In some embodiments, X is any number from 1 to 5.
Analysis Sets: The safety set was defined as all subjects who were administered study drug. The period-specific safety set includes subjects in the safety set who were administered study drug in the corresponding treatment cycle. […]

[1] = Study Period 1, safety set, 30 mg Cohort (N = 725), Day 126
[2] = Study Period 1, safety set, 50 mg Cohort (N = 199), Day 8
[3] = Study Period 1, safety set, 50 mg Cohort (N = 199), Day 15
[4] = Study Period 1, safety set, 50 mg Cohort (N = 199), Day 28
[5] = Study Period 1, safety set, 50 mg Cohort (N = 199), Day 70
[6] = Study Period 1, safety set, 50 mg Cohort (N = 199), Day 126
[7] = baseline HAM-D score ≥24, Study Period 1, 30 mg Cohort (N = 458), Day 8
[8] = baseline HAM-D score ≥24, Study Period 1, 30 mg Cohort (N = 458), Day 15
[9] = baseline HAM-D score ≥24, Study Period 1, 30 mg Cohort (N = 458), Day 28
[10] = baseline HAM-D score ≥24, Study Period 1, 30 mg Cohort (N = 458), Day 70
[11] = baseline HAM-D score ≥24, Study Period 1, 30 mg Cohort (N = 458), Day 126
[12] = baseline HAM-D score ≥24, Study Period 1, 50 mg Cohort (N = 127), Day 8
[13] = baseline HAM-D score ≥24, Study Period 1, 50 mg Cohort (N = 127), Day 15

C[C@@]1(O)CC[C@H]2[C@H](CC[C@@H]3[C@@H]2CC[C@]2(C)[C@@H](C(=O)Cn4cc(C#N)cn4)CC[C@@H]32)C1 [Compound (1), 1-(2-((3R,5R,8R,9R,10S,13S,14S,17S)-3-hydroxy-3,13-dimethylhexadecahydro-1H-cyclopenta[a]phenanthren-17-yl)-2-oxoethyl)-1H-pyrazole-4-carbonitrile]
HAM-D Response [1]: 144/203 (70.9%) | HAM-D total score, Mean % CFB ± SD [1]: −62.3 ± 30.36% | HAM-D total score, Mean CFB ± SD [1]: −15.7 ± 8.07 | HAM-D Remission [2]: 37/193 (19.2%) | HAM-D Response [2]: 97/193 (50.3%) | HAM-D total score, Mean % CFB ± SD [2]: −49.2 ± 22.41% | HAM-D total score, Mean CFB ± SD [2]: −12.3 ± 5.79 | HAM-D total score, Mean % CFB ± SD [3]: −63.6 ± 22.70% | HAM-D total score, Mean CFB ± SD [3]: −16±6.0 and −16.0±6.04 | HAM-D Remission [4]: 72/191 (37.7%) | HAM-D Response [4]: 120/191 (62.8%) | HAM-D total score, Mean % CFB ± SD [4]: −58.3 ± 26.05% | HAM-D total score, Mean CFB ± SD [4]: −14.6 ± 6.75 | HAM-D Remission [5]: 41/118 (34.7%) | HAM-D Response [5]: 69/118 (58.5%) | HAM-D total score, Mean % CFB ± SD [5]: −53.7 ± 28.40% | HAM-D total score, Mean CFB ± SD [5]: −13.6 ± 7.45 | HAM-D Remission [6]: 19/30 (63.3%) | HAM-D Response [6]: 22/30 (73.3%) | HAM-D total score, Mean % CFB ± SD [6]: −65.2 ± 33.96% | HAM-D total score, Mean CFB ± SD [6]: −16.3 ± 9.06 | HAM-D Remission [7]: 70/446 (15.7%) | HAM-D Response [7]: 192/446 (43.0%) | HAM-D total score, Mean % CFB ± SD [7]: −43.3 ± 25.63% | HAM-D total score, Mean CFB ± SD [7]: −12.0 ± 7.17 | HAM-D Remission [8]: 164 (37.9%) and 164/433 (37.9%) | HAM-D Response [8]: 319 (73.7%) and 319/433 (73.7%) | HAM-D total score, Mean % CFB ± SD [8]: −60.9 ± 25.50% | HAM-D total score, Mean CFB ± SD [8]: −16.9 ± 7.34 | HAM-D Remission [9]: 132/431 (30.6%) | HAM-D Response [9]: 250/431 (58.0%) | HAM-D total score, Mean % CFB ± SD [9]: −53.9 ± 28.59% | HAM-D total score, Mean CFB ± SD [9]: −15.0 ± 8.27 | HAM-D Remission [10]: 70/247 (28.3%) | HAM-D Response [10]: 125/247 (50.6%) | HAM-D total score, Mean % CFB ± SD [10]: −49.2 ± 32.86% | HAM-D total score, Mean CFB ± SD [10]: −13.8 ± 9.39 | HAM-D Remission [11]: 58/120 (48.3%) | HAM-D Response [11]: 90/120 (75.0%) | HAM-D total score, Mean % CFB ± SD [11]: −66.0 ± 28.29% | HAM-D total score, Mean CFB ± SD [11]: −18.2 ± 7.88 | HAM-D Remission [12]: 18/122 (14.8%) | HAM-D Response [12]: 61/122 (50.0%) | HAM-D total score, Mean % CFB ± SD [12]: −49.3 ± 21.32% | HAM-D total score, Mean CFB ± SD [12]: −13.3 ± 5.87 | HAM-D Remission [13]: 44 (37.3%) and 44/118 (37.3%) | HAM-D Response [13]: 94 (79.7%) and 94/118 (79.7%) | HAM-D total score, Mean % CFB ± SD [13]: −64.1 ± 21.73% | HAM-D total score, Mean CFB ± SD [13]: −17.4 ± 6.05 | HAM-D Remission (baseline HAM-D score ≥24, Study Period 1, 50 mg Cohort (N = 127), Day 28): 41/120 (34.2%)
